Measurements taken from US20100280118A1, “Methods for treating substance dependence” (The Scripps Research Institute, priority 2007, published 2010).
Marks after values point to notes of the source that are not given here.

Legend:
[1] = test system: non treatment-seeking volunteers with current cannabis and alcohol dependence; assay: Pilot laboratory study, one week gabapentin 1200 mg/d vs placebo; assay type: in vivo, human
Experimental: This Example describes treatment of subjects suffering from cannabis dependence with gabapentin. Subjects with DSM-IV cannabis dependence were enrolled in a clinical study of treatment with gabapentin. Earlier, in a pilot laboratory study, the safety and efficacy of gabapentin 1200 mg/d in non treatment-seeking volunteers with current cannabis and alcohol dependence involving were examined in one week of chronic dosing with double-blind, randomly assigned active drug or placebo. […] The results lend support to: 1) the safety and tolerability of our drug titration schedule and the steady state dose of gabapentin 1200 mg/d in outpatients with cannabis dependence; 2) the efficacy of gabapentin 1200 mg/d in treating disturbed sleep, a key symptom of cannabis withdrawal; and 3) our ability to recruit a sample of subjects with cannabis dependence who are willing to participate in clinical research involving medication. Based on the results from this pilot study, subjects with only cannabis dependence were then recruited and treated with gabapentin, as detailed below.

[2] = test system: outpatients with current cannabis dependence; assay: 12-week randomized, double-blind, placebo-controlled trial of gabapentin 1200 mg/d in cannabis dependence
[3] = test system: outpatients with alcohol dependence; assay: 12-week double-blind, placebo-controlled, dose-ranging study of gabapentin 900 or 1800 mg/day in alcohol dependence; assay type: in vivo, human; details: for Cohen's d, drinks per drinking day: interim analysis
Experimental: This example describes the study of gabapentin treatment of subjects suffering from alcohol dependence. A 12-week, double-blind, placebo-controlled, dose-ranging study was conducted with random assignment to gabapentin 900 mg/day, 1800 mg/day, or placebo. Subjects are outpatients with alcohol dependence. The 3 pharmacological treatment conditions were administered in conjunction with manual-guided behavioral counseling that incorporates strategies to increase motivation, abstinence, and medication compliance. Counseling and research assessments occurred weekly throughout the 12-week treatment phase. Post-treatment assessments occurred at Weeks 13, 24, and 36.
The criteria for inclusion are as follows: (1) Males or females over 18 years of age; (2) Meets DSM-IV criteria for current alcohol dependence; (3) Seeking research-based outpatient treatment for alcohol problems; (4) Abstinent from alcohol a minimum of 3 days to a maximum of 30 days at the time of randomization; and (5) Willing to attend 12 weekly study visits and 3 follow-up visits. The criteria for exclusion are as follows: (1) Currently meets DSM-IV criteria for dependence on substances other than alcohol, nicotine or caffeine; (2) Significant medical disorders that will increase potential risk or interfere with study participation, e.g., plasma […] >1.4 mg/dL; (3) Sexually active female subjects with childbearing potential who are pregnant, nursing or refuse to use a reliable method of birth control; (4) Meets DSM-IV criteria for a major AXIS I disorder other than alcohol dependence, including depressive and anxiety disorders, and is in need of, or currently undergoing, pharmacotherapy; (5) Inability to understand and/or comply with the provisions of the protocol and consent form; (6) Treatment with an investigational drug during the previous month; (7) Sensitivity to study drug as evidenced by adverse drug experiences with gabapentin or its ingredients; (8) Ongoing treatment with disulfuram (Antabuse), naltrexone (ReVia®), acamprosate (Campral®) or other medications that may affect study outcomes, e.g., anticonvulsants; (9) More than one month of abstinence prior to randomization; (10) Subjects who require medicated detoxification (Note: Subjects may proceed with study evaluation after completion of detoxification); (11) Subjects for whom treatment of alcoholism is being mandated by a legal authority; (12) Unable to identify at least one collateral informant to verify drinking status at baseline and monthly during study, and to assist in tracking subjects for follow-up assessments; or (13) Subjects who plan to move out of the geographic area served by the Clinic prior to study completion.
Primary outcome of the treatment was assesses with the following measures. Timeline Followback Interview (TLFB; Sobell and Sobell, 1992) provides quantity and frequency estimates of alcohol intake at baseline and throughout the study using a standard drinks format (Research Nurse, 20 minutes at screening and Week 24 and 36 follow-up visits, 5 minutes at weekly study visits). […] Therefore, TLFB data is supported by weekly breathalyzers and monthly collateral informant reports and GGT. If unresolved inconsistencies between sources occur, then the most negative outcome will be assumed accurate.
Secondary outcome of the treatment was assessed with the following measures. Alcohol Craving Questionnaire-Short Form (ACQ-SF; Singleton et al., 1994) provides a quick assessment of current drinking urges, difficulty resisting urges and anticipation of positive outcome or relief from negative affective state by drinking (baseline and every study visit, self report, 1-2 minutes). Beck Depression Inventory (BDI; Beck et al., 1961) is a self-rating of severity of depressive symptoms (baseline and every study visit, 5 minutes). Gamma glutamyl transferase (GGT) is used as a biochemical marker of alcohol abstinence or relapse. […]

[4] = test system: cue-reactive, alcohol-dependent individuals; assay: Cue reactivity study, 1 week gabapentin 1200 mg vs placebo, alcohol and affective cue-induced craving; assay type: in vivo, human
Experimental: This Example describes the results of a study to examine the effectiveness of gabapentin 1200 mg for attenuating symptoms of protracted abstinence in a non treatment-seeking sample of cue-reactive, alcohol-dependent individuals. Subjects were 33 paid volunteers with current DSM-IV alcohol dependence and a strength of craving rating 1σ or greater for alcohol than water cues. Subjects were randomly assigned to gabapentin or placebo for 1-week and then participated in a within-subjects trial where each was exposed to standardized sets of pleasant, neutral, and unpleasant visual stimuli followed by alcohol or water cues. A key aspect of the study design is exposure to alcohol cues (sight and smell of the subject's favorite alcoholic beverage) without consumption. Alcohol consumption would be expected to mask the effects of any medication that targets symptoms of protracted abstinence, as either or both could attenuate such symptoms; the effects of alcohol and the drug to be tested would therefore be inextricably confounded. The design is therefore relatively novel in combining elicitation of craving while inducing both positive and negative affect (along with interaction effects) with non-consumptive alcohol cue exposure. As such it may be particularly well-suited for testing the effectiveness of pharmacological treatments intended to normalize the neurobiological imbalances associated with protracted abstinence in alcoholics.
Subject enrollment: The study was conducted at the University of Miami School of Medicine, Miami, Fla. and approved by that institution's Institutional Review Board as conforming to the ethical standards of the 1964 Declaration of Helsinki. Subjects provided written informed consent prior to participation. Subjects were non treatment-seeking paid volunteers recruited primarily through advertisements, meeting the Diagnostic and Statistical Manual of Mental Disorders, 4th Edition (DSM-IV; American Psychiatric Association, 1994) criteria for current alcohol dependence, abstinent from alcohol on the day of the study, as verified by Breath Alcohol Concentration (BAC), not in acute withdrawal as verified by a Clinical Institute Withdrawal Assessments for Alcohol (CIWA-Ar; Sullivan et al., Br J Addict 84:1353-1357, 1989) score of <8, and meeting the definition of “cue reactive”. An individual was considered cue reactive if his or her “strength of craving” score under a neutral affect condition (see Study Overview below) was ≧1 standard deviation (3 VAS rating scale points; see measures discussion) greater for alcohol than for water cues during a mini cue reactivity session. This is similar to the criterion described by Rubonis et al. (J. Stud. Alcohol. 55:487-494, 1994) to classify cue reactors. Exclusionary criteria consisted of clinically significant medical or psychiatric disorders including depression, anxiety, or dependence on substances other than alcohol and nicotine.
Study Overview and Experimental Design: Subjects meeting admission criteria were randomized to receive gabapentin 1200 mg or placebo. Because image-based affective cue reactivity was not as strong as we had anticipated, to improve statistical power we augmented the control group with untreated individuals from three otherwise-similar lab studies. Criteria for participation were the same in all cases. Dosages (matched in the placebo condition) were titrated as follows: 300 mg morning on day 1, 300 mg morning and also evening on day 2, 300 mg morning, midday and evening on day 3, and 300 mg morning and midday followed by 600 mg evening for days 4-7. On day 7 of double-blind medication, overall measures of mood, sleep, and craving were assessed. This one-week interval of chronic dosing is intended to model and predict the critical first week on medication in a Phase II or III clinical trial, when participants' experiences with sleep and mood, or side effects, can dramatically affect treatment adherence and risk for dropout. […]

[5] = % of subjects, gabapentin 1200 mg/d
[6] = gabapentin 1200 mg vs placebo, day 7, alcohol vs water cue, 0-20 rating
[7] = gabapentin 1200 mg vs placebo, day 7, alcohol vs water cue, VAS 0-20
[8] = gabapentin 1200 mg vs placebo, day 7, negative vs neutral affect cue, 0-20 rating
[9] = gabapentin 1200 mg vs placebo, day 7, negative vs neutral affect cue, VAS 0-20
[10] = gabapentin 1200 mg vs placebo, day 7, positive vs neutral affect cue, 0-20 rating
[11] = gabapentin 1200 mg vs placebo, day 7, positive vs neutral affect cue, VAS 0-20

## NCC1(CC(=O)O)CCCCC1 [gabapentin, (1-aminomethyl)-1-cyclohexaneacetic acid]
[1]
  CBC, LFT, or urinalysis values: no change from baseline
  adverse drug complaints: no adverse drug complaints of more than mild severity
[2]; 12 weeks
  deaths or terminations due to drug-related adverse events: no deaths or terminations due to drug-related adverse events
[2]; [5]
  Adverse event: Abdominal Pain: 25%
  Adverse event: Decreased Appetite: 10%
  Adverse event: Depression: 30%
  Adverse event: Dizziness: 0%
  Adverse event: Fatigue: 15%
  Adverse event: Headache: 20%
  Adverse event: Increased Appetite: 15%
  Adverse event: Nausea: 15%
  Adverse event: Nervousness: 25%
  Adverse event: Other: 5%
[2]; both treatment groups, 2=mild
  average severity of AE's: 2.0±0.7
[2]; gabapentin 1200 mg/d, 12 weeks, p=0.11 vs placebo
  number of AE's complained of per subject: 4.0±6.7
[3]; 900 mg/d vs placebo
  BDI total score: no significant effect
  Cohen's d, drinks per drinking day: 0.82
[3]; 900 mg/d vs placebo, p<0.01
  sleep disturbance (PSQI), effect size d: −0.50
[3]; 900 mg/d vs placebo, p<0.05
  daytime dysfunction (PSQI), effect size d: −0.27
[3]; 1800 mg/d relative to placebo, p<0.05
  negative affective symptoms (BDI), effect size d: 0.33
[3]; 1800 mg/d vs placebo, p<0.01
  daytime dysfunction (PSQI), effect size d: −0.43
[3]; 1800 mg/d vs placebo
  Cohen's d, drinks per drinking day: 0.71
[3]; complete study (n=150)
  time the beneficial effect was sustained after completing treatment: up to 12 weeks
[3]; throughout the study
  deaths or serious drug-related adverse events: no deaths or serious drug-related adverse events
[3]; treatment vs placebo, trend for 900 mg/d, p<0.08
  subjective sleep quality or PSQI summary score: no significant effect
[4]; 1 week, gabapentin 1200 mg vs placebo
  symptoms generating the drug-placebo difference in symptom counts: dizziness (χ^2(1)=6.1, p<0.02) and fatigue
[4]; SAFTEE-G, 1 week, gabapentin 1200 mg, standard deviation 2.7, n=30 assessed
  total symptom counts over the week on medication (mean): 3.3
[4]; [6]
  Bev x Gaba, Feel strong emotion (estimated model coefficient): 1.15
  Bev x Gaba, Like beverage (estimated model coefficient): −0.25
  Bev x Gaba, SAM Arousal (estimated model coefficient): −1.79
  Bev x Gaba, SAM Dominance (estimated model coefficient): 0.81
  Bev x Gaba, SAM Valence (estimated model coefficient): 3.28*
[4]; [7]
  Bev x Gaba, Craving Difficult to turn down (estimated model coefficient): −1.31^††
  Bev x Gaba, Craving Drink Now (estimated model coefficient): −1.96^†
  Bev x Gaba, Craving Make Things Perfect (estimated model coefficient): 0.23
  Bev x Gaba, Craving Strength (estimated model coefficient): −2.16^†
[4]; [8]
  Aff− x Gaba, Feel strong emotion (estimated model coefficient): −1.29
  Aff− x Gaba, Like beverage (estimated model coefficient): 0.98
  Aff− x Gaba, SAM Arousal (estimated model coefficient): −4.92*
  Aff− x Gaba, SAM Dominance (estimated model coefficient): 1.30
  Aff− x Gaba, SAM Valence (estimated model coefficient): 1.25
[4]; [9]
  Aff− x Gaba, Craving Difficult to turn down (estimated model coefficient): 1.26
  Aff− x Gaba, Craving Drink Now (estimated model coefficient): 0.58
  Aff− x Gaba, Craving Make Things Perfect (estimated model coefficient): 0.20
  Aff− x Gaba, Craving Strength (estimated model coefficient): 0.96
[4]; [10]
  Aff+ x Gaba, Feel strong emotion (estimated model coefficient): −1.08
  Aff+ x Gaba, Like beverage (estimated model coefficient): −0.04
  Aff+ x Gaba, SAM Arousal (estimated model coefficient): −3.22^†
  Aff+ x Gaba, SAM Dominance (estimated model coefficient): 0.80
  Aff+ x Gaba, SAM Valence (estimated model coefficient): 0.21
[4]; [11]
  Aff+ x Gaba, Craving Difficult to turn down (estimated model coefficient): −1.34^††
  Aff+ x Gaba, Craving Drink Now (estimated model coefficient): 0.16
  Aff+ x Gaba, Craving Make Things Perfect (estimated model coefficient): 0.44
  Aff+ x Gaba, Craving Strength (estimated model coefficient): 0.25
[4]; gabapentin vs. placebo, n=28
  ARCI scores on five drug-of-abuse groups (abuse potential): no statistically significant differences
